From the supplement of paper PMC10307832

Legend:
Test in all cases: relative viability (nuclei count vs DMSO), 5 days (fraction); higher = more cells survive
Axitinib + Linsitinib = compound: CNC(=O)c1ccccc1Sc1ccc2c(/C=C/c3ccccn3)n[nH]c2c1 [Axitinib] + C[C@]1(O)C[C@@H](c2nc(-c3ccc4ccc(-c5ccccc5)nc4c3)c3c(N)nccn32)C1 [Linsitinib] (partner 1 µM)
In short: (§1)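 Medians of duplicate plates are given as relative viability. That measure is the nuclei count in treated wells divided by the count in vehicle wells. Counts were taken on 4× images of lung cancer cell lines in 1536-well plates, 5 days after pin-tool dosing the day after seeding with one drug alone or a fixed anchor-drug dose plus five library-drug doses (not always all listed) in √10 steps.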

Axitinib + Bortezomib = compound: CNC(=O)c1ccccc1Sc1ccc2c(/C=C/c3ccccn3)n[nH]c2c1 [Axitinib] + CC(C)C[C@H](NC(=O)[C@H](Cc1ccccc1)NC(=O)c1cnccn1)B(O)O [Bortezomib] (partner 0.002 µM)
In short: as §1

Bemcentinib + Crizotinib = compound: Nc1nc(Nc2ccc3c(c2)CC[C@@H](N2CCCC2)CC3)nn1-c1cc2c(nn1)-c1ccccc1CCC2 [Bemcentinib] + C[C@@H](Oc1cc(-c2cnn(C3CCNCC3)c2)cnc1N)c1c(Cl)ccc(F)c1Cl [Crizotinib] (partner 1 µM)
In short: as §1

Bemcentinib + Trametinib = compound: Nc1nc(Nc2ccc3c(c2)CC[C@@H](N2CCCC2)CC3)nn1-c1cc2c(nn1)-c1ccccc1CCC2 [Bemcentinib] + CC(=O)Nc1cccc(-n2c(=O)n(C3CC3)c(=O)c3c(Nc4ccc(I)cc4F)n(C)c(=O)c(C)c32)c1 [Trametinib] (partner 0.02 µM)
In short: as §1

NCI-H650 gave a relative viability (Axitinib + Linsitinib; first compound 0.005 µM) of 0.969, a relative viability (Axitinib + Linsitinib; first compound 0.01581 µM) of 0.866 and a relative viability (Axitinib + Linsitinib; first compound 0.05 µM) of 0.916. For the same cell line, the relative viability (Axitinib + Linsitinib; first compound 0.1581 µM) was 0.713, the relative viability (Axitinib + Linsitinib; first compound 0.5 µM) was 0.759 and the relative viability (Axitinib + Bortezomib; first compound 0.005 µM) was 0.739. The relative viability (Axitinib + Bortezomib; first compound 0.01581 µM) was 0.944, the relative viability (Axitinib + Bortezomib; first compound 0.05 µM) was 0.683 and the relative viability (Axitinib + Bortezomib; first compound 0.1581 µM) was 0.7. The relative viability (Axitinib + Bortezomib; first compound 0.5 µM) was 0.816, the relative viability (Bemcentinib + Crizotinib; first compound 0.04 µM) was 0.721 and the relative viability (Bemcentinib + Crizotinib; first compound 0.1265 µM) was 0.785. The relative viability (Bemcentinib + Crizotinib; first compound 0.4 µM) was 0.679, the relative viability (Bemcentinib + Crizotinib; first compound 1.265 µM) was 0.703 and the relative viability (Bemcentinib + Crizotinib; first compound 4 µM) was 0.618. It also gave a relative viability (Bemcentinib + Trametinib; first compound 0.04 µM) of 1.08, a relative viability (Bemcentinib + Trametinib; first compound 0.1265 µM) of 0.993 and a relative viability (Bemcentinib + Trametinib; first compound 0.4 µM) of 0.963. For the same cell line, the relative viability (Bemcentinib + Trametinib; first compound 1.265 µM) was 0.947 and the relative viability (Bemcentinib + Trametinib; first compound 4 µM) was 0.966.
